Assay results as given in article PMC5630632, “Assessing inhibitors of mutant isocitrate dehydrogenase using a suite of pre-clinical discovery assays” (Scientific Reports, 2017).
Numbering of substitutions follows the chain as printed. In brackets after ≈: the same amount, converted by molar mass. Like-named read-outs stand apart in the source and are kept apart here.

Experiments:
RBE (R132S) cells = experiment: 2-HG production, monolayer (2D), mass spectrometry, RBE; assay type: cell-based; conditions: Homo sapiens, mass spec; for Emax: read-out: 2D Cellular 2HG Production (Mass Spec) RBE (R132S) % EMax; for EC50: read-out: 2D Cellular 2HG Production (Mass Spec) RBE (R132S) EC50
Protocol: (§1) (Supplementary Table 2). Inhibition of the target was assessed by quantitative measurement of 2-HG levels in extracellular media of monolayer (or 2-dimentional, 2D) cultures following incubation (48 hrs) with inhibitors. […]
(§2) treated 96-well plates (Corning) at a density of 8000 cells/well/100 μL . Plates were sealed with gas permeable membranes (Research Products International Corp.) and incubated at 37°C, 5% CO2, 90% RH for 24 hr. Growth media was subsequently aspirated and replaced with 100 μL of a solution of growth media cont aining either vehicle DMSO or indicated mIDH1 inhibitor. Each compound was tested as an 8-point dilution series ranging from 5 μM to 2.3 nM. After 48 hr treatment, 75 μL of the exhausted media was collected and snap frozen on dry ice. Samples were analyzed by LC-MS for 2- HG concentrations using Rapidfire / Mass Spectrometry (Quintara) (4) . Remaining cells were assessed for viability by adding 100 μL of fresh media and 50 μL of CellTiter-Glo reagent (Promega) as per manufacturer instructions. Luminescence was read using a Vi ewLux High-throu ghpu t CCD imager (PerkinElmer) equipped with clear filters.

JJ012 (R132G) cells = experiment: 2-HG production, monolayer (2D), mass spectrometry, JJ012; assay type: cell-based; conditions: Homo sapiens, mass spec; for Emax: read-out: 2D Cellular 2HG Production (Mass Spec) JJ012 (R132G) % EMax; for EC50: read-out: 2D Cellular 2HG Production (Mass Spec) JJ012 (R132G) EC50
Protocol: as §1, §2

[1] = tested on: JJ012 (R132G) 3D cellular spheroids; experiment: 2-HG production, spheroids (3D), JJ012; assay type: cell-based; conditions: Homo sapiens; 3D spheroid, mass spec
Source text: (§3) To evaluate the effect of mIDH1 inhibitors in more relevant models of solid tumors, we adapted a 3-dimensional (3D) multicellular tumor spheroid assay to monitor spheroid formation and 2-HG production. Small molecules can have diminished efficacy in multicellular tumor spheroid models due to limited penetration and the heterogeneous nature of the 3D tumor spheroid[39],[40]. We began by testing the 6 aforementioned cell lines for their ability to form spheroids in ultra-low attachment plates at varying cell concentrations (1000–5000 cells/well). […] Overall, spheroids produced less extracellular 2-HG than cells cultured in monolayer (Fig. 7B).
(§4) Using these simple 3D models of solid tumors, we assessed the ability of inhibitors to reduce 2-HG production.
(§5) 2-HG production: Cells grown as spheroids (3D)
(§6) (RBE) cells/well/150 μ L to form spheroids. Of note, we were not able to obtain spheroids using SNU1079 cells. Plates were sealed with gas permeable membranes, centrifuged at 40 rcf for 1 min, and incubated at 37°C, 5% CO2, 90% RH for 96 (HT108 0, U87 and JJ01 2) or 4 8 (RBE) h r. Cells were washed (by remo ving 10 0 μL of exhausted media and re placing it with 100 μL of growth media, twice) and treated with 50 μL of a solution of media containing the indicated compounds. Each compound was tested as an 8-point dilution series ranging from 5 μM to 2.3 nM.
(§7) After 96 hr of t reatment, 100 μL of the exhausted media was collected and snap frozen on dry ice. Samples were analyzed by LC -MS for 2- HG concentrations using Rapidfire /Mass Spectrometry (Quintara) ( 4) . Plates were first imaged on the Celigo Imaging Cytometer (Ne xcelom Bioscience) to quantify area of each spheroid. Cell viability was subsequently measured using the CellTiter-Glo assay with some modifications: 50 μL of a solution of CellTiter-Glo reagent containing a final concentration of 0.025 % Trypsin (Thermo Sci entific) was added to each well and plates were shaken at 500 rpm for 30 min before reading.

[2] = tested on: RBE (R132S) 3D cellular spheroids; experiment: 2-HG production, spheroids (3D), RBE; assay type: cell-based; conditions: Homo sapiens; 3D spheroid, mass spec
Source text: as §3, §4, §5, §6, §7

IDH1 WT = IDH1 WT (Homo sapiens, UniProt O75874); experiment: Wild type IDH1 enzyme assay, diaphorase/resazurin coupled; conditions: for Emax: read-out: IDH1 WT % EMax
Chain of IDH1 WT (O75874 whole entry): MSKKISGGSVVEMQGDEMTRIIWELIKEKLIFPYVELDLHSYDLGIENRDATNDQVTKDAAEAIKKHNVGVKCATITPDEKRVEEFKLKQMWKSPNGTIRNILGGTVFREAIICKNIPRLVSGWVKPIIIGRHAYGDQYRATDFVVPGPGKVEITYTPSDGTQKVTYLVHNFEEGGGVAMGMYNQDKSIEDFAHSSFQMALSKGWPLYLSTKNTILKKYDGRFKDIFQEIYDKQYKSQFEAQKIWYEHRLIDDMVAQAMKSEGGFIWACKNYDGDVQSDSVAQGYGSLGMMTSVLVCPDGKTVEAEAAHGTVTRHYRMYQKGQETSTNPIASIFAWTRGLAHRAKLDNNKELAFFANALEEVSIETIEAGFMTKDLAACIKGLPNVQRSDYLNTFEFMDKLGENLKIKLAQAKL

IDH2 WT = biological target: T1, IDH2 WT (Homo sapiens, UniProt P48735); experiment: Wild type IDH2 enzyme assay, diaphorase/resazurin coupled
T1 sequence (P48735 40-452): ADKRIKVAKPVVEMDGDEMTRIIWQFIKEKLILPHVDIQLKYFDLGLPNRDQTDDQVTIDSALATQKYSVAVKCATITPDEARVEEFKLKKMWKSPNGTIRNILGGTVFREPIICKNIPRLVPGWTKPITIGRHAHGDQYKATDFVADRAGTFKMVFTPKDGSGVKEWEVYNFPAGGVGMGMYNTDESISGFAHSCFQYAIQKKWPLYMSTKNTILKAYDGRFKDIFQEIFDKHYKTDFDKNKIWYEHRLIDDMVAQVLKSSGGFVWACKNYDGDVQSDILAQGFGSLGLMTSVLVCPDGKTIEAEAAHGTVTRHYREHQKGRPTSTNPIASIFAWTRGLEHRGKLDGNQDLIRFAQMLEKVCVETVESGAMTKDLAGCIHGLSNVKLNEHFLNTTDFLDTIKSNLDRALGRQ

R172Q mIDH2 = biological target: T2, R172Q mIDH2 (Homo sapiens, UniProt P48735, R172Q); experiment: mIDH2-R172Q enzyme assay (Reaction Biology), diaphorase/resazurin coupled; conditions: for Emax: read-out: IDH2 R172Q % EMax
T2 sequence (P48735 40-452 R172Q): T1 sequence (P48735 40-452) with R133Q

[3] = High-throughput kinetic solubility (µSOL), pH 7.4; assay type: physicochemical; conditions: aqueous solution pH 7.4, pH 7.4, aqueous buffer, kinetic from dmso stock; read-out: HT Kinetic Solubility, Solubility
Protocol: High-Throughput kinetic solubility test assay
Pion’s patented µSOL assay for kinetic solubility determination was used. In this assay, the classical saturation shake- flask solub ility method was adapted to a 96-well microtiter plate format and a co-solvent method with n- propanol as the […] was utilized. Test compounds were prepared in 10 mM DMSO solutions (45 µ L), and diluted with the co-solve nt to a final drug conce ntration of […]
Samples are incubated at room temperature for 6 hrs t o achieve equilibrium. The samples were then filtered to remove any precipitate formed. The concentrat ion of the compound in the filtrate was measured by UV ab sorbance. […]
used for quantitation of unknown drug concent ration in filtrate. Spectroscopically pure 1- Propanol was used as acosolvent to suppress precipitation in the reference

[4] = High-throughput PAMPA (GIT), pH 7.4; assay type: in vitro ADME; conditions: read-out: HT PAMPA Permeability
Source text: In Vitro Physicochemical and Drug Metabolism Studies:
High-Throughput PAMPA assay
The stirring double- sin k PAMPA method patented by pION Inc. (Billeri ca, MA) was employed to determine the permeability of compounds via PAMPA passive diffusion. The PAMPA lipid membrane consisted of an artificial membrane of a proprietary lipid mixture and dodecane (Pion Inc.), optimized to predict gastrointestinal tract (GIT) passive diffusion permeability, was immobilized on a plastic matrix of a 96 well “donor” filter plate placed above a 96 well “a cceptor” plate. A pH 7.4 solution was used in both donor and acceptor wells. The test articles, stocked in 10 mM DMSO solutions, were diluted to 0.05 mM in aqueous buffer (pH 7.4) , and the concentration of DMSO was 0.5% in the final solution. During the 30-min permeation period at room temperature, the test samples in the donor compartment were stirred using the Gutbox te chnology (Pion Inc.) to reduce the unstirred water layer. The test article concentrations in the donor and acceptor compartments were measured using an UV plate reader (Nano Quant, Infinite 200 […]
PRO, Tecan Inc., Männedorf, Switzerland). Permeability calculations were performed using Pion Inc. software and were expressed in units of 10-6 cm/s. […]

[5] = Microsomal metabolic stability, mouse; assay type: in vitro ADME; conditions: pH 7.4; mouse liver microsomes
[6] = Microsomal metabolic stability, rat; assay type: in vitro ADME; conditions: pH 7.4; rat liver microsomes
[7] = Microsomal metabolic stability, human; assay type: in vitro ADME; conditions: pH 7.4; human liver microsomes
[8] = Human plasma protein binding (rapid equilibrium dialysis, Cyprotex); assay type: in vitro ADME; conditions: human, plasma, human plasma
hERG channel = biological target: T3, hERG channel (Homo sapiens, UniProt Q12809); experiment: hERG FluxOR-based thallium flux assay; assay type: cell-based; conditions: In Vitro Toxicity; for Emax: human, U2OS cells transduced with hERG-BacMam virus
T3 construct: host or cells: U2OS cells (ATCC)
T3 sequence (Q12809 whole entry): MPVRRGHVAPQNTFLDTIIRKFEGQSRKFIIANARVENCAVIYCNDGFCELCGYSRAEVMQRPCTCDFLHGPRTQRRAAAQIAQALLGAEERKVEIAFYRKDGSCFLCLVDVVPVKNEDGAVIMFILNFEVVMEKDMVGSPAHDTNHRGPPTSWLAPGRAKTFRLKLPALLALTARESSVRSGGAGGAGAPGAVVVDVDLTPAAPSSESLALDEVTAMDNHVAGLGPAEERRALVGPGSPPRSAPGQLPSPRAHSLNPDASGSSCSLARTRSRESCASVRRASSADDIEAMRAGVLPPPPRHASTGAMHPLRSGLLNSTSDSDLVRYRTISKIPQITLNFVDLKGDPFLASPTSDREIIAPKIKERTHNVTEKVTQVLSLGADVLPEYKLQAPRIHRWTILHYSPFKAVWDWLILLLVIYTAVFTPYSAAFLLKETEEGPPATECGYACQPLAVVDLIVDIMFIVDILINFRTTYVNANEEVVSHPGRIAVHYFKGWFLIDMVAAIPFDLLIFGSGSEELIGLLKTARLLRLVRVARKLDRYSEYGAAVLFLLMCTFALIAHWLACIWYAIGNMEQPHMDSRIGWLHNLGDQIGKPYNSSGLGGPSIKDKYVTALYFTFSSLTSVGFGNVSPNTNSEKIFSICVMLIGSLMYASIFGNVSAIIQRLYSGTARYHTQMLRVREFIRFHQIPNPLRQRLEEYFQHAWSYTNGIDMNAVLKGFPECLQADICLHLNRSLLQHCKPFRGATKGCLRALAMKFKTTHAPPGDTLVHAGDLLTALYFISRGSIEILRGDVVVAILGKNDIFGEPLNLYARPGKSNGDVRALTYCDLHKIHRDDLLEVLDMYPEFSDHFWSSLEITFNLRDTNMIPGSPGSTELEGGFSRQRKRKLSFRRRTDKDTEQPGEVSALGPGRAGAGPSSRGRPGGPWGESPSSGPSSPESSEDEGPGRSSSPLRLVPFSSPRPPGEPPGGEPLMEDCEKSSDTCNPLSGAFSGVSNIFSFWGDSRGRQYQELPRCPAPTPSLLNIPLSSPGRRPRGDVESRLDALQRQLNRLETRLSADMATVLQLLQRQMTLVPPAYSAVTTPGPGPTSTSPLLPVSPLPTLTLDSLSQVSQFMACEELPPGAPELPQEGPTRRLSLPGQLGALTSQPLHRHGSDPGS

in vitro = conditions: human, Caco-2
[9] = Human hepatocyte cytotoxicity (CellTiter-Glo, 72 hr); conditions: both, human, cryopreserved human hepatocytes
human hepatocytes = experiment: as above; conditions: Homo sapiens, Hepatocyte, read-out: Human Hepatocytes EC50
[10] = read-out: Human Plasma Protein Binding % Unbound

Row | SMILES | Emax (RBE (R132S) cells) [%] | EC50 (RBE (R132S) cells) [µM] | Emax (JJ012 (R132G) cells) [%] | EC50 (JJ012 (R132G) cells) [µM] | EC50 [1] [µM] | Emax [1] [%] | EC50 [2] [µM] | Emax [2] [%] | EC50 (IDH1 WT; IDH1 WT EC50, Biochemical) [µM] | Emax (IDH1 WT) [%] | EC50 (IDH2 WT) [µM] | Emax (IDH2 WT; read-out: IDH2 WT % EMax) [%] | EC50 (R172Q mIDH2) [µM] | Emax (R172Q mIDH2) [%] | solubility kinetic at 6 h [3] [µM] | Papp at 30 min, 0.05 mM [4] [×10⁻⁶ cm/s] | half-life at 1 µM [5] [min] | half-life at 1 µM [6] [min] | half-life at 1 µM [7] [min] | Emax (IDH2 WT; read-out: IDH2 % EMax) [%] | also measured
1 | CC(C)[C@H]1COC(=O)N1c1ccnc(N[C@@H](C)c2ccc(C(=O)NC3CCCC3)c(Cl)c2)n1 [Novartis 530] | 88.2 | 0.078 | 70.5 | 0.076 | 0.069 | 92.4 | 0.571 | 86.9 | 3.5 | 102 ± 5.8 | > 30 | 17.3 ± 4.4 | > 30 | 3.9 | – | – | – | – | – | – | EC50 (IDH1 WT; IDH1 WT EC50, purified enzyme): 3.51 ± 0.17 µM
2 | CC(C)Nc1nc(Nc2ccccc2)nc(-c2ccccc2)n1 [IDH2-C100] | – | – | – | – | – | – | – | – | > 30 | 11.8 | 6.59 | – | 0.343 | 72.2 | 0.458 (≈ 0.14 µg/mL) | 482 | 13.5 | 26.7 | 20.6 | 84.7 | fraction unbound at 4 h, 5 µM [8, 10]: 0.00011; EC50 (hERG channel): > 30 µM; Emax (hERG channel): 7.2%; Papp A→B at 2 h, 10 µM (in vitro): 0.57 ×10⁻⁶ cm/s; Papp B→A at 2 h, 10 µM (in vitro): 2.34 ×10⁻⁶ cm/s; Emax at 72 h [9]: 31.5%; EC50 (human hepatocytes): > 30 µM; IC50 (R172Q mIDH2): ~1 µM
3 | CC(C)(C)CC(C)(C)c1cc(Cn2ccnc2)c(O)c(Cn2ccnc2)c1 [Sanofi 1] | 29.3 | > 30 | 28.8 | > 30 | > 30 | 35.3 | > 30 | 47.3 | – | 18.8 ± 2.2 | > 30 | 19.9 ± 8 | > 30 | 3.2 | – | – | – | – | – | 26.7 | –
4 | CC(C)(O)CNc1nc(Nc2ccnc(C(F)(F)F)c2)nc(-c2cccc(C(F)(F)F)n2)n1 [AG-221, Enasidenib] | – | – | – | – | – | – | – | – | 15.1 | 57.7 | > 30 | – | 0.044 | 87.2 | 14.2 (≈ 6.72 µg/mL) | 1310 | > 120 | > 120 | > 120 | 83.4 | fraction unbound at 4 h, 5 µM ([8]; read-out: Human Plasma Protein Binding % Bound (converted)): 0.006; fraction unbound at 4 h, 5 µM [8, 10]: 0.00637; EC50 (hERG channel): > 30 µM; Emax (hERG channel): 33.2%; Papp A→B at 2 h, 10 µM (in vitro): 9.41 ×10⁻⁶ cm/s; Papp B→A at 2 h, 10 µM (in vitro): 23.8 ×10⁻⁶ cm/s; efflux ratio at 2 h, 10 µM (in vitro): 2.54; Emax at 72 h [9]: 84.8%; EC50 (human hepatocytes): 18.4 µM; IC50 (R172Q mIDH2): 0.065 µM
